Measured values published in ChEMBL document CHEMBL1145568, “Opioids and efflux transporters. Part 3: P-glycoprotein substrate activity of 3-hydroxyl addition to meperidine analogs” (Bioorg Med Chem Lett, 2008).
Counter-ions that a name gives are not always drawn.

These compounds were tested against P-gp (ABCB1) ATPase (Homo sapiens, UniProt P08183) (assay: Stimulation of Pgp ATPase activity at 200 uM by Pgp-Glo assay system relative to control). Conditions: read-out: Fold change.
P-gp (ABCB1) ATPase, sequence (P08183 whole entry): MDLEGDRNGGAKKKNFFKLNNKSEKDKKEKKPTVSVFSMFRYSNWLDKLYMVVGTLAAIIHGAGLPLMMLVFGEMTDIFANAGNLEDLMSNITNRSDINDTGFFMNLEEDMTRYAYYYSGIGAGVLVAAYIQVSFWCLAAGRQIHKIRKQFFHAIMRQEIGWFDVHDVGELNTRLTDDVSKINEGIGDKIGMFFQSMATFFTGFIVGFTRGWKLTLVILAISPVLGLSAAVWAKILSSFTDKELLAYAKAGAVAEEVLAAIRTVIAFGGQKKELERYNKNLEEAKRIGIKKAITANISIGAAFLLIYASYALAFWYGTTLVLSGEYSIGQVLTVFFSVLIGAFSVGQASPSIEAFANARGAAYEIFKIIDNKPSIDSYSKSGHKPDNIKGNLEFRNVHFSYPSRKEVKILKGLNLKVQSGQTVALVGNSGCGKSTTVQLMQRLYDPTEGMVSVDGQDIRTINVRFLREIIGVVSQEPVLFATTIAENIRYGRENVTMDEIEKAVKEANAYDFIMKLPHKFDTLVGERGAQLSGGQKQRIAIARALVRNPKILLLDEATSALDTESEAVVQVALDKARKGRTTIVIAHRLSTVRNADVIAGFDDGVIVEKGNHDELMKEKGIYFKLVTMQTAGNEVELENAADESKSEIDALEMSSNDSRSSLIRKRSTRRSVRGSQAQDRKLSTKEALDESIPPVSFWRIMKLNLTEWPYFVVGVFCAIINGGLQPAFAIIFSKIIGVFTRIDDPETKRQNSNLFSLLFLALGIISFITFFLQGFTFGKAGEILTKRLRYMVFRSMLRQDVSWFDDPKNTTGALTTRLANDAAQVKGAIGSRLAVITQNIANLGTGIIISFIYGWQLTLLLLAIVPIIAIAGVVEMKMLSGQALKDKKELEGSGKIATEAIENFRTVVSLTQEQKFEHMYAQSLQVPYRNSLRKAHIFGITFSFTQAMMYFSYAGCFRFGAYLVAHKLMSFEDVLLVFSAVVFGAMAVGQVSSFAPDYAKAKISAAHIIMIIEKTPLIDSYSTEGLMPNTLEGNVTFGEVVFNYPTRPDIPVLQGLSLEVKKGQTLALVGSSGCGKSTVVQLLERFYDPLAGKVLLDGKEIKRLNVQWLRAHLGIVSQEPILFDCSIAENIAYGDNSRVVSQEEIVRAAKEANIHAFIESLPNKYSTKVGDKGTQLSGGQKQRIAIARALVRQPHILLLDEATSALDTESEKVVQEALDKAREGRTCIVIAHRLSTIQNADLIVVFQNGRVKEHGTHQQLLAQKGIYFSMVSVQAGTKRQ

In order of falling fold induction at 200 µM:
1. CCC(=O)C1(c2cccc(O)c2)CCN(C)CC1 [KETOBEMIDONE OXALATE]  4.89
2. CCOC(=O)C1(c2cccc(O)c2)CCN(C)CC1 [BEMIDONE]  2.64
3. CCOC(=O)C1(c2ccccc2)CCN(C)CC1 [PETHIDINE OXALATE]  1.78
4. CCC(=O)C1(c2ccccc2)CCN(C)CC1  1.37
